PubChem BioAssay AID256 (DTP/NCI, 2004)
Inconclusive results and toxic doses are left out.

System: CD2F1 mice, L1210 leukemia ip, survival T/C
Assay: NCI In Vivo Anticancer Drug Screen. Data for tumor model L1210 Leukemia (intraperitoneal) in CD2F1 (CDF1) mice
Conditions: higher = longer survival
Method in brief: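 Vehicle-treated tumor-bearing mice served as controls (C) for compound-treated mice (T). Reported figure is T divided by C.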

[1] = endpoint: mean survival time, dose: 100.0 mg/kg/injection, schedule: Q04DX002 (ip), vehicle: Klucel (hydroxypropylcellulose) (HPC)
[2] = endpoint: mean survival time, dose: 200.0 mg/kg/injection, schedule: Q04DX002 (ip), vehicle: Klucel (hydroxypropylcellulose) (HPC)
[3] = endpoint: mean survival time, dose: 400.0 mg/kg/injection, schedule: Q04DX002 (ip), vehicle: Klucel (hydroxypropylcellulose) (HPC)
[4] = endpoint: mean survival time, dose: 100.0 mg/kg/injection, schedule: Q01DX009 (ip), vehicle: saline with Tween-80
[5] = endpoint: mean survival time, dose: 100.0 mg/kg/injection, schedule: Q04DX003 (ip), vehicle: saline with Tween-80
[6] = endpoint: mean survival time, dose: 200.0 mg/kg/injection, schedule: Q01DX009 (ip), vehicle: saline with Tween-80
[7] = endpoint: mean survival time, dose: 200.0 mg/kg/injection, schedule: Q04DX003 (ip), vehicle: saline with Tween-80
[8] = endpoint: mean survival time, dose: 400.0 mg/kg/injection, schedule: Q01DX009 (ip), vehicle: saline with Tween-80
[9] = endpoint: mean survival time, dose: 400.0 mg/kg/injection, schedule: Q04DX003 (ip), vehicle: saline with Tween-80
[10] = endpoint: mean survival time, dose: 50.0 mg/kg/injection, schedule: Q04DX002 (ip), vehicle: saline with Tween-80
[11] = endpoint: mean survival time, dose: 100.0 mg/kg/injection, schedule: Q04DX002 (ip), vehicle: saline with Tween-80
[12] = endpoint: mean survival time, dose: 200.0 mg/kg/injection, schedule: Q04DX002 (ip), vehicle: saline with Tween-80
[13] = endpoint: median survival time, dose: 15.0 mg/kg/injection, schedule: Q01DX005 (ip), vehicle: saline
[14] = endpoint: median survival time, dose: 30.0 mg/kg/injection, schedule: Q01DX005 (ip), vehicle: saline
[15] = endpoint: mean survival time, dose: 200.0 mg/kg/injection, schedule: Q01DX001 (ip), vehicle: saline with Tween-80
[16] = endpoint: mean survival time, dose: 400.0 mg/kg/injection, schedule: Q01DX001 (ip), vehicle: saline with Tween-80

SMILES: Brc1c2ccccc2c(Br)c2ccccc12
- T/C [1]: 86 % of control
- T/C [2]: 114 % of control
- T/C [3]: 86 % of control

SMILES: C/C=C1/CN2[C@H]3C[C@@]45c6ccccc6N[C@@H]4[C@@H]2C[C@H]1[C@@]3(C(=O)OC)[C@H]5O
- T/C [4]: 91 % of control
- T/C [5]: 95 % of control
- T/C [6]: 95 % of control
- T/C [7]: 100 % of control
- T/C [8]: 91 % of control
- T/C [9]: 103 % of control

SMILES: CC(C)COC(=N)c1ccccc1C1(O)CCCCC1
- T/C [10]: 91 % of control
- T/C [11]: 88 % of control
- T/C [5]: 98 % of control
- T/C [12]: 100 % of control
- T/C [7]: 92 % of control

SMILES: COC1=C(OC)C(=O)C(N(C)C)=C(CO)C1=O
- T/C [13]: 102 % of control
- T/C [14]: 100 % of control
- T/C (endpoint: median survival time, dose: 60.0 mg/kg/injection, schedule: Q01DX005 (ip), vehicle: saline): 103 % of control
- T/C (endpoint: median survival time, dose: 120.0 mg/kg/injection, schedule: Q01DX005 (ip), vehicle: saline): 107 % of control

SMILES: CC1(C)C(=O)C(Br)=Cc2ccccc21
- T/C (endpoint: mean survival time, dose: 12.5 mg/kg/injection, schedule: Q01DX009 (ip), vehicle: other): 105 % of control
- T/C (endpoint: mean survival time, dose: 25.0 mg/kg/injection, schedule: Q01DX009 (ip), vehicle: other): 100 % of control
- T/C (endpoint: mean survival time, dose: 50.0 mg/kg/injection, schedule: Q01DX009 (ip), vehicle: other): 111 % of control
- T/C (endpoint: mean survival time, dose: 100.0 mg/kg/injection, schedule: Q01DX009 (ip), vehicle: other): 108 % of control
- T/C (endpoint: mean survival time, dose: 200.0 mg/kg/injection, schedule: Q01DX009 (ip), vehicle: other): 105 % of control

SMILES: NC(CSC1(c2ccccc2)c2ccccc2-c2ccccc21)C(=O)O (configuration not stated)
- T/C (endpoint: mean survival time, dose: 25.0 mg/kg/injection, schedule: Q01DX009 (ip), vehicle: saline): 96 % of control
- T/C (endpoint: mean survival time, dose: 50.0 mg/kg/injection, schedule: Q01DX009 (ip), vehicle: saline): 102 % of control
- T/C (endpoint: mean survival time, dose: 100.0 mg/kg/injection, schedule: Q01DX009 (ip), vehicle: saline): 100 % of control
- T/C (endpoint: mean survival time, dose: 200.0 mg/kg/injection, schedule: Q01DX009 (ip), vehicle: saline): 100 % of control
- T/C (endpoint: mean survival time, dose: 400.0 mg/kg/injection, schedule: Q01DX009 (ip), vehicle: saline): 110 % of control

SMILES: CC(C)CCC(=O)c1ccccc1
- T/C [10]: 87 % of control
- T/C [11]: 97 % of control
- T/C [12]: 91 % of control

SMILES: CCCCCCCCCCCCCCCCCCCCc1ccccc1
- T/C [1]: 97 % of control
- T/C [2]: 94 % of control
- T/C [3]: 90 % of control

SMILES: CCCC[P+](C)(CC[P+](C)(c1ccccc1)c1ccccc1)c1ccccc1 (configuration not stated)
- T/C (endpoint: mean survival time, dose: 6.25 mg/kg/injection, schedule: Q04DX002 (ip), vehicle: saline): 104 % of control
- T/C (endpoint: mean survival time, dose: 12.5 mg/kg/injection, schedule: Q04DX002 (ip), vehicle: saline): 89 % of control

SMILES: Cc1csc2ncnc(Cl)c12
- T/C (endpoint: mean survival time, dose: 100.0 mg/kg/injection, schedule: Q01DX001 (ip), vehicle: saline with Tween-80): 101 % of control
- T/C [15]: 97 % of control
- T/C [16]: 97 % of control

SMILES: O=C1OC(c2ccccc2)c2ccccc21 (configuration not stated)
- T/C [4]: 95 % of control
- T/C [6]: 100 % of control
- T/C [8]: 92 % of control

SMILES: CC(C)(C)c1cc(N)cc(C(C)(C)C)c1O
- T/C [10]: 91 % of control
- T/C [11]: 98 % of control
- T/C [12]: 98 % of control

SMILES: CCOC(=O)C(Cc1ccc(OC)c(OC)c1)C(Cc1ccc(OC)c(OC)c1)C(=O)OCC (configuration not stated)
- T/C [4]: 96 % of control
- T/C [5]: 95 % of control
- T/C [6]: 95 % of control
- T/C [7]: 93 % of control
- T/C [8]: 96 % of control
- T/C [9]: 87 % of control

SMILES: NC1CCCCC1N.O=C1C=C/C(=C(/c2ccc(O)c(Br)c2)c2ccccc2S(=O)(=O)[O-])C=C1Br.O=C1C=C/C(=C(/c2ccc(O)c(Br)c2)c2ccccc2S(=O)(=O)[O-])C=C1Br.[Pt+4]
- T/C (endpoint: median survival time, dose: 3.12 mg/kg/injection, schedule: Q04DX003 (ip), vehicle: saline): 175 % of control
- T/C (endpoint: median survival time, dose: 6.25 mg/kg/injection, schedule: Q04DX003 (ip), vehicle: saline): 219 % of control
- T/C (endpoint: median survival time, dose: 12.5 mg/kg/injection, schedule: Q04DX003 (ip), vehicle: saline): 239 % of control
- T/C (endpoint: median survival time, dose: 25.0 mg/kg/injection, schedule: Q04DX003 (ip), vehicle: saline): 329 % of control

SMILES: O=CO.[Tl]
- T/C (endpoint: mean survival time, dose: 5.0 mg/kg/injection, schedule: Q01DX001 (ip), vehicle: saline): 104 % of control
- T/C (endpoint: mean survival time, dose: 10.0 mg/kg/injection, schedule: Q01DX001 (ip), vehicle: saline): 98 % of control
- T/C (endpoint: mean survival time, dose: 20.0 mg/kg/injection, schedule: Q01DX001 (ip), vehicle: saline): 95 % of control
- T/C (endpoint: mean survival time, dose: 40.0 mg/kg/injection, schedule: Q01DX001 (ip), vehicle: saline): 98 % of control
- T/C (endpoint: mean survival time, dose: 80.0 mg/kg/injection, schedule: Q01DX001 (ip), vehicle: saline): 104 % of control

SMILES: CCN(CC)CC(C)(C)C(=O)/C=C/c1ccc(/C=C/C(=O)C(C)(C)CN(CC)CC)cc1
- T/C (endpoint: median survival time, dose: 3.75 mg/kg/injection, schedule: Q01DX005 (ip), vehicle: saline): 98 % of control
- T/C (endpoint: median survival time, dose: 7.5 mg/kg/injection, schedule: Q01DX005 (ip), vehicle: saline): 107 % of control
- T/C [13]: 107 % of control
- T/C [14]: 116 % of control

SMILES: O=C(N/N=C/c1ccc2c(c1)CCC2)c1cccc([N+](=O)[O-])c1
- T/C [5]: 91 % of control
- T/C [15]: 94 % of control
- T/C [7]: 94 % of control
- T/C [16]: 101 % of control
- T/C [9]: 106 % of control

SMILES: COc1ccc(/C=C2/C=C(c3ccccc3)OC2=O)cc1
- T/C (endpoint: mean survival time, dose: 100.0 mg/kg/injection, schedule: Q04DX003 (ip), vehicle: saline): 98 % of control
- T/C (endpoint: mean survival time, dose: 200.0 mg/kg/injection, schedule: Q04DX003 (ip), vehicle: saline): 101 % of control
- T/C (endpoint: mean survival time, dose: 400.0 mg/kg/injection, schedule: Q04DX003 (ip), vehicle: saline): 98 % of control

SMILES: O=c1ccnc(SCc2ccccc2)[nH]1
- T/C [11]: 105 % of control
- T/C [12]: 101 % of control
- T/C (endpoint: mean survival time, dose: 400.0 mg/kg/injection, schedule: Q04DX002 (ip), vehicle: saline with Tween-80): 94 % of control

SMILES: C(/C=C\c1ccccc1)=Nc1ccccc1
- T/C (endpoint: mean survival time, dose: 25.0 mg/kg/injection, schedule: Q01DX009 (ip), vehicle: Klucel (hydroxypropylcellulose) (HPC)): 93 % of control
- T/C (endpoint: mean survival time, dose: 50.0 mg/kg/injection, schedule: Q01DX009 (ip), vehicle: Klucel (hydroxypropylcellulose) (HPC)): 93 % of control
- T/C (endpoint: mean survival time, dose: 100.0 mg/kg/injection, schedule: Q01DX001 (ip), vehicle: saline sonified): 93 % of control
- T/C (endpoint: mean survival time, dose: 100.0 mg/kg/injection, schedule: Q01DX009 (ip), vehicle: Klucel (hydroxypropylcellulose) (HPC)): 95 % of control
- T/C [4]: 101 % of control
- T/C [6]: 97 % of control
- T/C [8]: 92 % of control
